Laboratory results as given in patent publication US11696901B2 (SHAOGUAN UNIVERSITY, priority 2020, dated 2023).
Values joined by “and” are separate entries in the source; they are usually repeats but may differ in a detail not shown here. Equal entries are not always repeated.

Assays:
[1] = DPPH⋅ scavenging activity; format: biochemical; conditions: positive control
Protocol: Moreover, it can also be acidified with citric acid to pH 4.6 and then pasteurized at 80° C. for 20 min; or filtered with a 0.22 μm organic filter for cold sterilization. The unsterilized beverage was used as control. The scavenging capacity toward DPPH free radical was used as an index to evaluate the sterilization effect, where the ascorbic acid (Vc) was used as positive control.
(§1) The beverage samples were prepared as follows.
2 mg, 4 mg, 6 mg, 8 mg and 10 mg of Vc were diluted with distilled water to 100 mL, respectively, that was, the final concentrations of the Vc were 20 μg/mL, 40 μg/mL, 60 μg/mL, 80 μg/mL and 100 μg/mL, respectively.
The reaction mixture was reacted in dark for 30 min, and then measured at 517 nm for the absorbance (A1), where a well containing the sample and 100 μL of absolute ethanol was used as control; a well containing 100 μL of distilled water and 100 μL of the DPPH solution was used as blank group; and Vc was used as positive control.
(§2) The scavenging rate was calculated as follows: scavenging rate %=[1−(A1−A2)/A0]×100%,

[2] = ABTS^+⋅ scavenging activity; format: biochemical; conditions: positive control
Protocol: as §1
2 mg, 4 mg, 6 mg, 8 mg and 10 mg of Vc were diluted with distilled water to 100 mL, respectively, that was, the final concentrations of the Vc were 20 μg/mL, 40 μg/mL, 60 μg/mL, 80 μg/mL and […], respectively.
5 mL of a K2S2O8 solution (2.6 mmol/L) and 10 mL of an […] (7.4 mmol/L) were mixed uniformly and reacted in dark for 12 h. The ABTS^+⋅ solution was diluted with phosphate buffer solution (pH=6.6) to an absorbance of 0.70±0.02 to produce a working solution. […] The reaction mixture was mixed uniformly, reacted in dark for 6 min and measured at 734 nm for the absorbance A1, where a well containing the sample and 160 μL of absolute ethanol was used as control; a well containing 40 μL of distilled water and 160 μL of the ABTS^+⋅ solution was used as blank group; and Vc was used as positive control.
as §2

[3] = Optimal concentration of stabilizer Zn^2+, absorbance of curcumin solution at 425 nm; format: physicochemical; conditions: after 60 h, room temperature
Protocol: A series of Zn^2+ stock solutions were prepared as follows. 0.03 g, 0.06 g, 0.09 g, 0.12 g, 0.15 g and 0.18 g of zinc sulfate were dissolved with 100 mL of distilled water and stirred uniformly to prepare a series of zinc sulfate stock solutions with a concentration of 0.3 g/L, 0.6 g/L, 0.9 g/L, 1.2 g/L, 1.5 g/L and 1.8 g/L, respectively, which were stored for use.
The 7 vessels were placed at room temperature and measured for the absorbance at 425 nm using a microplate reader every other 12 h, where each measurement was performed in triplicate.

[4] = Stability of absorbance (A/A0 after centrifugation); format: physicochemical; conditions: comparative experiment; curcumin concentration 6.0/5.8/4.8/4.0 mg/mL, pH 7/7/7/6 in row order; beverage = A3B2C2D2
Protocol: The absorbance (A0) of the sample before the centrifugation and the absorbance (A) of the sample after the centrifugation were measured at the maximum absorption wavelength, and the stability of absorbance was represented by A/A0.

[5] = Precipitation rate after centrifugation; format: physicochemical; conditions: comparative experiment; curcumin concentration 6.0/5.8/4.8/4.0 mg/mL, pH 7/7/7/6 in row order; beverage = A3B2C2D2
Protocol: The weight of the centrifuge tube and the total weight of the sample and the centrifuge tube were measured, and then the sample was centrifuged at 4,000 r/min for 15 min. The supernatant was discarded and the total weight of the centrifuge tube and the precipitate was accurately measured.
The precipitation rate was calculated as follows: precipitation rate=precipitate weight/sample weightx 100%.

[6] = Table 18 (starch sodium octenyl succinate series)
[7] = Table 19, one value beside each beverage (nanoparticle powder 0.2-1.0%)
[8] = Table 21, one value beside each test number
[9] = verification experiment, mean of three repeats
[10] = verification experiment, single repeats 1-3

| Structure (SMILES) | DPPH · scavenging rate (%) Vc ([1]; Table 16 (CMC-Na series)) | DPPH · scavenging rate (%) Vc ([1]; Table 17 (xanthan gum series)) | DPPH · scavenging rate (%) Vc [1, 6] | Rate of DPPH · radical clearance (%) Vc [1, 7] | DPPH · scavenging rate (%) Vc [1, 8] | DPPH · scavenging rate (%) Vc [1, 9] | DPPH · scavenging rate (%) Vc [1, 10] | ABTS^+ · scavenging rate (%) Vc ([2]; Table 16 (CMC-Na series)) | ABTS^+ · scavenging rate (%) Vc ([2]; Table 17 (xanthan gum series)) | ABTS^+ · scavenging rate (%) Vc [2, 6] | Rate of ABTS^+ · radical clearance (%) Vc [2, 7] | ABTS^+ · scavenging rate (%) Vc [2, 8] | ABTS^+ · scavenging rate (%) Vc [2, 9] | ABTS^+ · scavenging rate (%) Vc [2, 10] | absorbance of curcumin solution at 425 nm over time ([3]; Zn^2+ concentration 0.3 g/L) | absorbance of curcumin solution at 425 nm over time ([3]; Zn^2+ concentration 0.36 g/L) | Coefficient of absorbanee stability [4] | Precipitation rate after centrifugation (%) [5] |
| --- | --- | --- | --- | --- | --- | --- | --- | --- | --- | --- | --- | --- | --- | --- | --- | --- | --- | --- |
| O=C1O[C@H]([C@@H](O)CO)C(O)=C1O [Vc, ascorbic acid] | 92.51% | 92.51% | 92.51% | 93.15% and 93.62% and 93.67% and 91.72% and 92.51% | 95.72% and 93.44% and 94.65% | 94.5 ± 0.00% | 95.59% and 94.59% | 90.38% | 90.38% | 90.38% | 92.44% and 93.69% and 94.53% and 88.12% and 90.38% | 96.13% and 92.88% and 95.10% | 95.34 ± 0.00% | 95.34% |  |  |  |  |
| COc1cc(/C=C/C(=O)CC(=O)/C=C/c2ccc(O)c(OC)c2)ccc1O [Pure curcumin, Curcumin] |  |  |  |  |  |  |  |  |  |  |  |  |  |  | smallest slope and relatively stable absorbance | declining tendency | 0.286 ± 0.180 | 0.550 ± 0.100% |
